Data taken from patent publication US20230058954A1, “APREPITANT FOR USE IN THE TOPICAL TREATMENT OF FACIAL NEURALGIA” (ASSISTANCE PUBLIQUE - HOPITAUX DE PARIS, priority 2020, published 2023).

Test system: patients suffering from facial neuralgia
Test: Earlier treatments of the same patients (not relieved by)
Type: in vivo, human
[1] = Patient 3, post-zooster facial neuralgia

With `CNCC[C@H](Oc1cccc2ccccc12)c1cccs1` [duloxetine] the “relief of pain by earlier treatment” value (Patient 2, facial neuralgia) was “No relieved”.
In the case of `NCC1(CC(=O)O)CCCCC1` [gabapentin], the “relief of pain by earlier treatment” value (Patient 2, facial neuralgia) was “No relieved”.
`COc1cccc(C2(O)CCCCC2CN(C)C)c1` (stereo not drawn) [tramadol] was tested, and the “relief of pain by earlier treatment” value [1] was “No relieved”.
With `CC(C)C[C@H](CN)CC(=O)O` [pregabalin] the “relief of pain by earlier treatment” value (Patient 2, facial neuralgia) was “No relieved” and the “relief of pain by earlier treatment” value [1] was “No relieved”.
For `CNC1(c2ccccc2Cl)CCCCC1=O` (stereo not drawn) [ketamine], the “relief of pain by earlier treatment” value (Patient 1, trigeminal neuralgia) was “No relieved”.
`CCC(=O)C(CC(C)N(C)C)(c1ccccc1)c1ccccc1` (stereo not drawn) [methadone] was tested, and the “relief of pain by earlier treatment” value (Patient 2, facial neuralgia) was “No relieved”.
`CN(C)CCC=C1c2ccccc2CCc2ccccc21` [amitriptyline] was tested, and the “relief of pain by earlier treatment” value (Patient 2, facial neuralgia) was “No relieved” and the “relief of pain by earlier treatment” value [1] was “No relieved”.
